Measurements from ChEMBL document CHEMBL4507268 (2021).

What was measured:
[1] = target: SRSF protein kinase 1 (Homo sapiens) (UniProt Q96SB4); details: Compound concentration 1000.0 nM
[2] = target: Serine/threonine-protein kinase 36 (Homo sapiens) (UniProt Q9NRP7); details: Compound concentration 1000.0 nM
[3] = target: Mitogen-activated protein kinase kinase kinase 13 (Homo sapiens) (UniProt O43283); details: Compound concentration 1000.0 nM
[4] = target: T1, Activin receptor type-1 (Homo sapiens) (UniProt Q04771); details: Compound concentration 1000.0 nM
T1 sequence (whole entry): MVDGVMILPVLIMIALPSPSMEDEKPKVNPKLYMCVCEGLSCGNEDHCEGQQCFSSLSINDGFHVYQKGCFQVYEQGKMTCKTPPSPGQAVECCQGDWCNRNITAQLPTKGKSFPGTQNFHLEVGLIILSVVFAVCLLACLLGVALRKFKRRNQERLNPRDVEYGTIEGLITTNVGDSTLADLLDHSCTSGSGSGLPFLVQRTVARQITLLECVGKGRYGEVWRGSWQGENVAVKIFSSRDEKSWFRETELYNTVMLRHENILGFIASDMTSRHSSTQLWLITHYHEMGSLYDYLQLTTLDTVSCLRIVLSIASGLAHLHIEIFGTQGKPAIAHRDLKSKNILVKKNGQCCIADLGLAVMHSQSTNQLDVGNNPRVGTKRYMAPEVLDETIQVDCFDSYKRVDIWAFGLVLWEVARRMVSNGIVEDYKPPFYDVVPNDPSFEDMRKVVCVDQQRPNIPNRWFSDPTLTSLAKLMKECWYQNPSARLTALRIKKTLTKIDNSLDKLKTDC

[5] = target: T2, MAP/microtubule affinity-regulating kinase 4 (Homo sapiens) (UniProt Q96L34); details: Compound concentration 1000.0 nM
T2 sequence (whole entry): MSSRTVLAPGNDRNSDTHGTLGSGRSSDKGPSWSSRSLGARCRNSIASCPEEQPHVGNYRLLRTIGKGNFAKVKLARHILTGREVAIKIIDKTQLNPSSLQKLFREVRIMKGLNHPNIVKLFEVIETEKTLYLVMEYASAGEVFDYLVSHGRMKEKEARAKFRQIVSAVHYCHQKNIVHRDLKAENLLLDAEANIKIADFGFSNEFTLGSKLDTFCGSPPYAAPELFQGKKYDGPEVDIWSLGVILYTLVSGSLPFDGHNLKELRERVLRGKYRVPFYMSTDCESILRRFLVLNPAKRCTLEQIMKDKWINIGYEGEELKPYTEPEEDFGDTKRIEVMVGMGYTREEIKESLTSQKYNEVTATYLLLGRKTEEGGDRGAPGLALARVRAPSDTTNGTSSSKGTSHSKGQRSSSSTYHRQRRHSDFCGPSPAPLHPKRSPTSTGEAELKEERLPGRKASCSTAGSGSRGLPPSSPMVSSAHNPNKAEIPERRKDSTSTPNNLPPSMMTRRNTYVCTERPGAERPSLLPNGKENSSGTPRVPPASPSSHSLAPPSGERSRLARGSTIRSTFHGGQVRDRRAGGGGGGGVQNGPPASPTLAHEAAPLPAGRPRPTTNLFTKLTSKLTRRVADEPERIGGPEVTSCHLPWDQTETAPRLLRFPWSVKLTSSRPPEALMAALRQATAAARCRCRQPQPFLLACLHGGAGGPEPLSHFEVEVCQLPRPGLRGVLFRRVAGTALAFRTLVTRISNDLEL

[6] = target: 5-hydroxytryptamine receptor 3A (Homo sapiens) (UniProt P46098); details: Compound concentration 10.0 uM
[7] = target: Dual specificity tyrosine-phosphorylation-regulated kinase 1A (Homo sapiens) (UniProt Q13627); details: Compound concentration 1000.0 nM
[8] = target: Serine/threonine-protein kinase RIO3 (Homo sapiens) (UniProt O14730); details: Compound concentration 1000.0 nM
[9] = system: Phosphatidylinositol 4,5-bisphosphate 3-kinase catalytic subunit alpha isoform (Homo sapiens), P42336 [E545K]; details: Compound concentration 1000.0 nM
[10] = system: Mast/stem cell growth factor receptor Kit (Homo sapiens), P10721 [V559D,T670I]; details: Compound concentration 1000.0 nM
Sequence of Mast/stem cell growth factor receptor Kit (Homo sapiens), P10721 [V559D,T670I] (P10721 whole entry V559D/T670I): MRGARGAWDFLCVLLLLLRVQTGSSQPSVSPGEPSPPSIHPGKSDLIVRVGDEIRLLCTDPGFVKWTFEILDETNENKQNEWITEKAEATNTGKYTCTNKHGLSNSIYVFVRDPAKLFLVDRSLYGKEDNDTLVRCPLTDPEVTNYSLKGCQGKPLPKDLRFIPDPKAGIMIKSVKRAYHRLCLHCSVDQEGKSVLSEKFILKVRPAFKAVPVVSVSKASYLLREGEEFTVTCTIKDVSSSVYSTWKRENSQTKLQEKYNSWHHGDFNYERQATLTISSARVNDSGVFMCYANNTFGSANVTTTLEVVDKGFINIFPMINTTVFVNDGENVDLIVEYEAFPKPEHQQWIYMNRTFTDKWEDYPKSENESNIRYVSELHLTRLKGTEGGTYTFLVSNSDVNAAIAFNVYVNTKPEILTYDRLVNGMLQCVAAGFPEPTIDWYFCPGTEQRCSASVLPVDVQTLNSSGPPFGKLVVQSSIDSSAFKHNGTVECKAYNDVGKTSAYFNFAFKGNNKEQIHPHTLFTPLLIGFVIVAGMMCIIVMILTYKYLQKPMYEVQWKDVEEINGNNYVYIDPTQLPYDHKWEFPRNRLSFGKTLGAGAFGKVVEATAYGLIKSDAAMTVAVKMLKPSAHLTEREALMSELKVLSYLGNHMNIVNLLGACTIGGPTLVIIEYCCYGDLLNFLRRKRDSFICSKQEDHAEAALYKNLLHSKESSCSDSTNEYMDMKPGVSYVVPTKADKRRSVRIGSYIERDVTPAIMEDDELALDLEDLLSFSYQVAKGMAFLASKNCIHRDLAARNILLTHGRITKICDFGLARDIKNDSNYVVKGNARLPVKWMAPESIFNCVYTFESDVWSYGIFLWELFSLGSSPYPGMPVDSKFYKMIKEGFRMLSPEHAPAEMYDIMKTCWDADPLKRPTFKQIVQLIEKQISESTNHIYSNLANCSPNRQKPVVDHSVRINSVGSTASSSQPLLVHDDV

[11] = target: Mitogen-activated protein kinase kinase kinase kinase 4 (Homo sapiens) (UniProt O95819); details: Compound concentration 1000.0 nM
Sequence of Mitogen-activated protein kinase kinase kinase kinase 4 (Homo sapiens) (O95819 2-1239 limits assumed): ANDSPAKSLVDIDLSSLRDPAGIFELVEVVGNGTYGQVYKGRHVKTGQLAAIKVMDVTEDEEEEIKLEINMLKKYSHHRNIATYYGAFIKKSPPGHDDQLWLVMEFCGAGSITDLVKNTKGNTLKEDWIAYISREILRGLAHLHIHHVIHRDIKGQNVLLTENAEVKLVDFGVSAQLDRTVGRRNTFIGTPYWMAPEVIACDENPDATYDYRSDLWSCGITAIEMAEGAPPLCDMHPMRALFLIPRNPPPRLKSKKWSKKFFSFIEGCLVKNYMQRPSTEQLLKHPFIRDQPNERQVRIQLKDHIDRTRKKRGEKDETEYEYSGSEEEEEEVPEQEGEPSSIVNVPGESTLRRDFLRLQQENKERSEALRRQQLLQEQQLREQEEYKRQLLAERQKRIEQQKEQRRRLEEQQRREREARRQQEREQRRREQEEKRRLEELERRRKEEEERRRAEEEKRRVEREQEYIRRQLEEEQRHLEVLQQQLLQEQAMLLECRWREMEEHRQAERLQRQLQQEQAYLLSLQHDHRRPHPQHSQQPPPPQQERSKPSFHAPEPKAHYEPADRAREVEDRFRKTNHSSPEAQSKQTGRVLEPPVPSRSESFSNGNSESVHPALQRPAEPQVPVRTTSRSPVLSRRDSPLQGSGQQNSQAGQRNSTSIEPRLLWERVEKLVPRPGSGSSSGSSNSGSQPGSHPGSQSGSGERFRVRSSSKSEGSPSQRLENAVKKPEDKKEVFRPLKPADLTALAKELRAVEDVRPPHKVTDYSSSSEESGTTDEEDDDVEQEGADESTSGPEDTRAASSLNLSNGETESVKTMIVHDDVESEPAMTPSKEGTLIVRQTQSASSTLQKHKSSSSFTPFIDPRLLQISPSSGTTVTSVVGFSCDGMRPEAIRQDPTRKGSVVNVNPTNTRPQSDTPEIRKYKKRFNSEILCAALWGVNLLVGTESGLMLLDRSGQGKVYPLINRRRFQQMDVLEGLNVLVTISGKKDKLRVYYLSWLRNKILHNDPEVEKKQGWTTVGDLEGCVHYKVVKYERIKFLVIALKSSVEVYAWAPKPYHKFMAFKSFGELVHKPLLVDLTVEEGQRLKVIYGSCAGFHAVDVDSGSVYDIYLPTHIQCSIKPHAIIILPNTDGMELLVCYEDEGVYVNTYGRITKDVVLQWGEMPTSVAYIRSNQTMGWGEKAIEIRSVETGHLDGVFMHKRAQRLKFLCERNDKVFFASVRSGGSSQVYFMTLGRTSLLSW

[12] = target: Tyrosine-protein kinase JAK1 (Homo sapiens) (UniProt P23458); details: Compound concentration 1000.0 nM
Sequence of Tyrosine-protein kinase JAK1 (Homo sapiens) (P23458 whole entry): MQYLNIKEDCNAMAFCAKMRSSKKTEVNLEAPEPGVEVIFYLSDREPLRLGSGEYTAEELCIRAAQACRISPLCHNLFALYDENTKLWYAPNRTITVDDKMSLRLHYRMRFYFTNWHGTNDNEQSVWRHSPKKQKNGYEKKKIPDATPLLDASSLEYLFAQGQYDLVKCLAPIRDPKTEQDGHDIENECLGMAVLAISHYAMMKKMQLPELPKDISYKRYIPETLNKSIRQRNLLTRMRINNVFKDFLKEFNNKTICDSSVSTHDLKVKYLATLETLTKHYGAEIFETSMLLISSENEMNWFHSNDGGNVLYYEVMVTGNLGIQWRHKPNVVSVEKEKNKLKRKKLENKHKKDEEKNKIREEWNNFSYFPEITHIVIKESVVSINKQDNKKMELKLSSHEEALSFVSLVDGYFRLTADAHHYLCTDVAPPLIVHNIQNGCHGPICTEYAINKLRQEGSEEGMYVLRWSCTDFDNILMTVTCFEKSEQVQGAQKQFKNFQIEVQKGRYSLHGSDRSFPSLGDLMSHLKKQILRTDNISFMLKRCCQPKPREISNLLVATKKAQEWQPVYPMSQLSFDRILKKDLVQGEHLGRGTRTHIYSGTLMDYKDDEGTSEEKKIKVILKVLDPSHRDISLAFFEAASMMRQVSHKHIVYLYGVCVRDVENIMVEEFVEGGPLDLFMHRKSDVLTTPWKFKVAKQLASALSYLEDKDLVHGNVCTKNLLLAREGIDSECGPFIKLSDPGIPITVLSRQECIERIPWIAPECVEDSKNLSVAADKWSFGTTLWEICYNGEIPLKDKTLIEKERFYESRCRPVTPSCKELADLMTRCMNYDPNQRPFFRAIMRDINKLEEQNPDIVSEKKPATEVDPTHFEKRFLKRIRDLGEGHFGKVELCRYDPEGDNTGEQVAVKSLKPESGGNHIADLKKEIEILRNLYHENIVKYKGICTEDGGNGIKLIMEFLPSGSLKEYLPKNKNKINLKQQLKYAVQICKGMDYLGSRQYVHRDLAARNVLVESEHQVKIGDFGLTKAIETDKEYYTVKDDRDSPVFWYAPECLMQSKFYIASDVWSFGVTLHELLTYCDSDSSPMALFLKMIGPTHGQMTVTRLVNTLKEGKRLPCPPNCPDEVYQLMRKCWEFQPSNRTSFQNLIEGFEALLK

[13] = target: Cyclin-dependent kinase 16 (Homo sapiens) (UniProt Q00536); details: Compound concentration 1000.0 nM
[14] = target: T3, Serine/threonine-protein kinase Nek2 (Homo sapiens) (UniProt P51955); details: Compound concentration 1000.0 nM
T3 sequence (whole entry): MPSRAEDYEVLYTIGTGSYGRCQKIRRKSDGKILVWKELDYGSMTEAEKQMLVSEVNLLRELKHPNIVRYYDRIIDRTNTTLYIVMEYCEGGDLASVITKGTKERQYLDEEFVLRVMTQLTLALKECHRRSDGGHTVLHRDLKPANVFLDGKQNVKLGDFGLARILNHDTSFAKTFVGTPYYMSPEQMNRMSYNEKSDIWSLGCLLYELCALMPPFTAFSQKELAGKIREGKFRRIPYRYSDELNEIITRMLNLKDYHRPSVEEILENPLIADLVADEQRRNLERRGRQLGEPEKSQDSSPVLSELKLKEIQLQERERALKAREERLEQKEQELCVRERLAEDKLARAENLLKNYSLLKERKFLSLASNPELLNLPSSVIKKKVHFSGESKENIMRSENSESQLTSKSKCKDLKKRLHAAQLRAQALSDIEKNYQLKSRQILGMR

[15] = target: Ribosomal protein S6 kinase alpha-3 (Homo sapiens) (UniProt P51812); details: Compound concentration 1000.0 nM

Sequence of Serine/threonine-protein kinase 36 (Homo sapiens) (Q9NRP7 whole entry): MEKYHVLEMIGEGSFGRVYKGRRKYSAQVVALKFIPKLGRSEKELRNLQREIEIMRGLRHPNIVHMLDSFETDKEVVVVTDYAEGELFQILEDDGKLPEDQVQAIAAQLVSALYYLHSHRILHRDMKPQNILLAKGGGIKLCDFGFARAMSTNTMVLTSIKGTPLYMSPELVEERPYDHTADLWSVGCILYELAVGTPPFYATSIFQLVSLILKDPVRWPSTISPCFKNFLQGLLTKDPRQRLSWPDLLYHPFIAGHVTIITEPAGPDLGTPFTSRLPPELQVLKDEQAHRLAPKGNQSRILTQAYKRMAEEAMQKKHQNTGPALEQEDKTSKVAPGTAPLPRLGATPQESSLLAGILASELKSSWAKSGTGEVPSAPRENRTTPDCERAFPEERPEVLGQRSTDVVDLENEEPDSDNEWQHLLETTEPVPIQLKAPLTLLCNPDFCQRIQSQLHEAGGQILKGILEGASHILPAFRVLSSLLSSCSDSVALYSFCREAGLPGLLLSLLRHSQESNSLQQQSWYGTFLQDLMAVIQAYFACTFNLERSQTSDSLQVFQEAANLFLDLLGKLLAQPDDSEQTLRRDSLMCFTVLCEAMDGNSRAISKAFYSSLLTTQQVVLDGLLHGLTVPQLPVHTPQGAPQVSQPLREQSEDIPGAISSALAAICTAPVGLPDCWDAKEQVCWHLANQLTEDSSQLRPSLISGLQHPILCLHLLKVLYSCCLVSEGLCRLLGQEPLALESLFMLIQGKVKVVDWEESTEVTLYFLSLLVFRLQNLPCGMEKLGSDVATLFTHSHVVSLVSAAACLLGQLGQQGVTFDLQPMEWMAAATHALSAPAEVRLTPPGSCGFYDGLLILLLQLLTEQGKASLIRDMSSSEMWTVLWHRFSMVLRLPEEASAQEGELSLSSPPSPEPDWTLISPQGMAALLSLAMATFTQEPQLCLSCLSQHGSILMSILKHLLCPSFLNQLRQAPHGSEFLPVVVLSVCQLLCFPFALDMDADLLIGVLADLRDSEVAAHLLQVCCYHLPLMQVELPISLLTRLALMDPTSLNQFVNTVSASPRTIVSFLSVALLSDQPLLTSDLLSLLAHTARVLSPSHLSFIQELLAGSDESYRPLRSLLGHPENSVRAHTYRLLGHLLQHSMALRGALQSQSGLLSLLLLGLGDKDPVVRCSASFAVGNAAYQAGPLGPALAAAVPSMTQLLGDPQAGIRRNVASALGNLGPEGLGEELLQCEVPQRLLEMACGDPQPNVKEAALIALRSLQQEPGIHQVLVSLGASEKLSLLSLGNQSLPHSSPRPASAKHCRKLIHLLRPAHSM

Cc1nc(C2CCN(C(=O)c3ccc(OC(F)(F)F)cc3N)CC2)c2ncc(N3CCN(C)CC3)cc2n1 [BAY-693]
inactive: residual activity [1] 79% | residual activity [2] 100% | residual activity [3] 100% | residual activity [4] 100% | residual activity [5] 100% | inhibition [6] 6.25% | residual activity [7] 100% | residual activity [8] 87% | residual activity [9] 85% | residual activity [10] 100% | residual activity [11] 100% | residual activity [12] 95% | residual activity [13] 100% | residual activity [14] 100% | residual activity [15] 100%

CN1CCN(c2cnc3c(C4CCN(C(=O)c5ccc(OC(F)(F)F)cc5N)CC4)ncnc3c2)CC1 [BAY-885]
inactive: residual activity [1] 88% | residual activity [2] 75% | residual activity [3] 100% | residual activity [4] 100% | residual activity [5] 100% | inhibition [6] 5.22% | residual activity [7] 100% | residual activity [8] 97% | residual activity [9] 100% | residual activity [10] 100% | residual activity [11] 100% | residual activity [12] 100% | residual activity [13] 100% | residual activity [14] 100% | residual activity [15] 85%
